Measured values from the supplement of paper PMC5908809.

Tests used:
[1] = tested on: normal NK cells expanded with K562-aAPC; test: percent inhibition of viability; higher = more inhibition; conditions: 72 h, IL-2 2.5 ng/mL
Experimental: (§1)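 Drug sensitivity and resistance testing on K562-aAPC-expanded normal NK cells: 5 concentrations (10-fold steps over a 10,000-fold range), 72 h at 37 °C, viability by CellTiter-Glo normalised to DMSO and benzethonium chloride controls; DSS from the fitted curve.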

DERL-7 (IL-2 2.5 ng/mL) [2] = test: as above; conditions: 72 h
IMC-1 (IL-2 20 ng/mL) [3] = test: as above; conditions: 72 h
KAI3 (IL-2 2.5 ng/mL) [4] = test: as above; conditions: 72 h
KHYG-1 (IL-2 2.5 ng/mL) [5] = test: as above; conditions: 72 h
NK-92 (IL-2 2.5 ng/mL) [6] = test: as above; conditions: 72 h
NK-YS (IL-2 2.5 ng/mL) [7] = test: as above; conditions: 72 h
NKL (IL-2 2.5 ng/mL) [8] = test: as above; conditions: 72 h
SNK-6 (IL-2 2.5 ng/mL) [9] = test: as above; conditions: 72 h
YT (IL-2 2.5 ng/mL) [10] = test: as above; conditions: 72 h
[11] = tested on: normal primary NK cells, pool 1 (3 donors) (IL-2 2.5 ng/mL); test: as above; conditions: 72 h
[12] = tested on: normal primary NK cells, pool 1 (3 donors), resting (IL-2 0 ng/mL); test: as above; conditions: 72 h
[13] = tested on: normal primary NK cells, pool 2 (3 donors) (IL-2 2.5 ng/mL); test: as above; conditions: 72 h
[14] = tested on: normal primary NK cells, pool 3 (3 donors) (IL-2 2.5 ng/mL); test: as above; conditions: 72 h
[15] = tested on: normal NK cells expanded with K562-aAPC; test: drug sensitivity score (DSS) (DSS units); higher = more sensitive; extreme values may be limits of the assay; conditions: 72 h; IL-2 2.5 ng/mL
Experimental: as §1

DERL-7 (IL-2 2.5 ng/mL) [16] = test: as above; conditions: 72 h
IMC-1 (IL-2 20 ng/mL) [17] = test: as above; conditions: 72 h
KAI3 (IL-2 2.5 ng/mL) [18] = test: as above; conditions: 72 h
KHYG-1 (IL-2 2.5 ng/mL) [19] = test: as above; conditions: 72 h
NK-92 (IL-2 2.5 ng/mL) [20] = test: as above; conditions: 72 h
NK-YS (IL-2 2.5 ng/mL) [21] = test: as above; conditions: 72 h
NKL (IL-2 2.5 ng/mL) [22] = test: as above; conditions: 72 h
SNK-6 (IL-2 2.5 ng/mL) [23] = test: as above; conditions: 72 h
YT (IL-2 2.5 ng/mL) [24] = test: as above; conditions: 72 h
[25] = tested on: normal primary NK cells, pool 1 (3 donors) (IL-2 2.5 ng/mL); test: as above; conditions: 72 h
[26] = tested on: normal primary NK cells, pool 1 (3 donors), resting (IL-2 0 ng/mL); test: as above; conditions: 72 h
[27] = tested on: normal primary NK cells, pool 2 (3 donors) (IL-2 2.5 ng/mL); test: as above; conditions: 72 h
[28] = tested on: normal primary NK cells, pool 3 (3 donors) (IL-2 2.5 ng/mL); test: as above; conditions: 72 h

C[C@@H](Nc1cc(F)cc(F)c1)c1cc(C(=O)N(C)C)cc2c(=O)cc(N3CCOCC3)oc12 [AZD-8186] (max concentration tested 1000 nM)
percent inhibition of viability [%]
Conditions | 0.1 nM | 1 nM | 10 nM | 100 nM | 1000 nM
DERL-7 (IL-2 2.5 ng/mL) [2] | -0.61 | -0.52 | 0.73 | 12.4 | 17.2
IMC-1 (IL-2 20 ng/mL) [3] | -4.26 | -2.05 | -9.6 | -12.9 | -13.3
KAI3 (IL-2 2.5 ng/mL) [4] | -2.99 | 1.77 | 1.66 | 8.81 | 5.34
KHYG-1 (IL-2 2.5 ng/mL) [5] | -0.98 | -2.42 | -2.86 | 0.88 | -3.51
NK-92 (IL-2 2.5 ng/mL) [6] | -5.14 | -3.4 | -6.34 | 7.87 | 29.8
NK-YS (IL-2 2.5 ng/mL) [7] | -5.07 | -6.92 | -2.82 | -2.72 | 4.56
NKL (IL-2 2.5 ng/mL) [8] | -15.3 | -13.8 | -5.07 | -8.33 | -6.27
SNK-6 (IL-2 2.5 ng/mL) [9] | 10 | 11.1 | -10.9 | -9.3 | -17.3
YT (IL-2 2.5 ng/mL) [10] | -0.09 | -4.44 | -2.79 | 1.47 | 3.03
[1] | -7 | -2.1 | -0.27 | 1.82 | 6.33
[11] | -5.02 | -7 | 5.11 | 5.09 | 16.9
[12] | 3.9 | -3.52 | 11.1 | 13.5 | 24.3
[13] | -10.7 | -2.64 | -11.3 | -1.73 | 4.08
[14] | -6.84 | -3.88 | -7.48 | -5.25 | -2.65

Conditions | drug sensitivity score
DERL-7 (IL-2 2.5 ng/mL) [16] | 1.36
IMC-1 (IL-2 20 ng/mL) [17] | 0
KAI3 (IL-2 2.5 ng/mL) [18] | 0
KHYG-1 (IL-2 2.5 ng/mL) [19] | 0
NK-92 (IL-2 2.5 ng/mL) [20] | 2.45
NK-YS (IL-2 2.5 ng/mL) [21] | 0
NKL (IL-2 2.5 ng/mL) [22] | 0
SNK-6 (IL-2 2.5 ng/mL) [23] | 0
YT (IL-2 2.5 ng/mL) [24] | 0
[15] | 0
[25] | 0.51
[26] | 2.41
[27] | 0
[28] | 0

COc1cc2nccc(Oc3ccc(NC(=O)Nc4cc(C)on4)c(Cl)c3)c2cc1OC [Tivozanib] (max concentration tested 10000 nM)
percent inhibition of viability [%]
Conditions | 1 nM | 10 nM | 100 nM | 1000 nM | 10000 nM
DERL-7 (IL-2 2.5 ng/mL) [2] | 6.25 | -4.07 | 8.65 | 3.71 | 74.2
IMC-1 (IL-2 20 ng/mL) [3] | 0.39 | 1.69 | -1.08 | 4.81 | 20.3
KAI3 (IL-2 2.5 ng/mL) [4] | 0.42 | 12.7 | 7.97 | 8.25 | 33.2
KHYG-1 (IL-2 2.5 ng/mL) [5] | 2.06 | 3.29 | 1.48 | 11.4 | 50.2
NK-92 (IL-2 2.5 ng/mL) [6] | 17.7 | 7.65 | 22.3 | 42.5 | 71
NK-YS (IL-2 2.5 ng/mL) [7] | -1.25 | 1.72 | 3.3 | 12.8 | 64.8
NKL (IL-2 2.5 ng/mL) [8] | -0.1 | -11 | -5.13 | 8.13 | 47.4
SNK-6 (IL-2 2.5 ng/mL) [9] | 0.59 | 1.54 | -8.58 | 41.8 | 65.3
YT (IL-2 2.5 ng/mL) [10] | 8.31 | 9.93 | 8.18 | 19.9 | 61.6
[1] | -1.14 | -3.52 | -0.12 | 3.67 | -4.22
[11] | -3.27 | -5.56 | -13 | 7.21 | 36.9
[12] | 5.37 | -0.35 | 5.84 | 18.5 | 67.5
[13] | 5.79 | 7.02 | 3.11 | -2.45 | 29.2
[14] | 8.53 | 3.31 | 5.07 | 0.75 | 3.16

Conditions | drug sensitivity score
DERL-7 (IL-2 2.5 ng/mL) [16] | 4.63
IMC-1 (IL-2 20 ng/mL) [17] | 1.23
KAI3 (IL-2 2.5 ng/mL) [18] | 2.57
KHYG-1 (IL-2 2.5 ng/mL) [19] | 4.48
NK-92 (IL-2 2.5 ng/mL) [20] | 11.5
NK-YS (IL-2 2.5 ng/mL) [21] | 5.65
NKL (IL-2 2.5 ng/mL) [22] | 3.83
SNK-6 (IL-2 2.5 ng/mL) [23] | 8.55
YT (IL-2 2.5 ng/mL) [24] | 5.67
[15] | 0
[25] | 2.94
[26] | 6.37
[27] | 1.08
[28] | 0

Cn1cc(-c2cnn3c(N)c(Br)c([C@@H]4CCCNC4)nc23)cn1 [MK-8776] (max concentration tested 2500 nM)
percent inhibition of viability [%]
Conditions | 0.25 nM | 2.5 nM | 25 nM | 250 nM | 2500 nM
DERL-7 (IL-2 2.5 ng/mL) [2] | -4.26 | -3.5 | 3.67 | 6.88 | 55.8
IMC-1 (IL-2 20 ng/mL) [3] | 0.83 | -1.94 | -0.11 | -7.96 | -12.2
KAI3 (IL-2 2.5 ng/mL) [4] | 3.31 | 2.43 | 4.64 | 27.4 | 78.2
KHYG-1 (IL-2 2.5 ng/mL) [5] | -1.01 | -4.38 | -0.53 | 35.5 | 96.9
NK-92 (IL-2 2.5 ng/mL) [6] | -2.81 | 3.64 | -4.5 | 1.39 | 59.4
NK-YS (IL-2 2.5 ng/mL) [7] | -4.27 | -8.69 | -3.31 | 4.44 | 71.2
NKL (IL-2 2.5 ng/mL) [8] | -4.57 | -4.36 | -8.73 | 22.1 | 81.6
SNK-6 (IL-2 2.5 ng/mL) [9] | 9.37 | 1.96 | -6.2 | 5.96 | 39.8
YT (IL-2 2.5 ng/mL) [10] | 0.02 | -2.99 | 0.3 | 1.22 | 7.84
[1] | -4.61 | 0.4 | -2.28 | 10.6 | 52.3
[11] | -5.76 | -3.11 | 7.06 | 4.82 | 30.9
[12] | -9.91 | -16.5 | 4.6 | 0.8 | 20
[13] | -8.05 | -5.57 | -3.65 | -0.92 | 21.5
[14] | -9.21 | -3.85 | -3.76 | -1.26 | 7.54

Conditions | drug sensitivity score
DERL-7 (IL-2 2.5 ng/mL) [16] | 4.16
IMC-1 (IL-2 20 ng/mL) [17] | 0
KAI3 (IL-2 2.5 ng/mL) [18] | 7.81
KHYG-1 (IL-2 2.5 ng/mL) [19] | 10.2
NK-92 (IL-2 2.5 ng/mL) [20] | 3.39
NK-YS (IL-2 2.5 ng/mL) [21] | 4.58
NKL (IL-2 2.5 ng/mL) [22] | 7.86
SNK-6 (IL-2 2.5 ng/mL) [23] | 2.97
YT (IL-2 2.5 ng/mL) [24] | 0
[15] | 4.51
[25] | 2.16
[26] | 0.68
[27] | 0.64
[28] | 0
